This note sets out measurements from US20260295053A1, “COMPOUNDS FOR DEGRADATION AND INHIBITION OF KRAS (G12D) PROTEIN” (Shenzhen Ionova Life Science Co., Ltd., priority 2023, published 2026).

A value given as a limit tells only on which side of the number the result lay.

One experiment deals with T1, KRAS (G12D) (Homo sapiens, UniProt P01116, G12D).
T1 construct: in-cell western with KRAS G12D antibody after 24 h
Briefly: KRAS (G12D) cellular degradation assay in AsPC-1 cells. The experiment is classed as cell-based. The settings on record: 24 hours, antibody fluorescence (Odyssey CLX), DC50 half-maximal degradation concentration. The gist of the method: (§1)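 Half-maximal degradation (DC50) and inhibition (IC50) concentrations are fitted from dose-response curves spanning […] to 1.5 nM final. KRAS G12D loss is measured by fluorescent antibody staining with β-actin reference after 24 h; growth is measured by ATP luminescence after a 6-day exposure.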

The test system of another experiment is AsPC-1 cells. Briefly: AsPC-1 cell proliferation assay (CellTiter Glo). Format: cell-based. The settings on record: 6 days. The gist of the method: as §1

T1 sequence (P01116 1-188 isoform P01116-2 G12D): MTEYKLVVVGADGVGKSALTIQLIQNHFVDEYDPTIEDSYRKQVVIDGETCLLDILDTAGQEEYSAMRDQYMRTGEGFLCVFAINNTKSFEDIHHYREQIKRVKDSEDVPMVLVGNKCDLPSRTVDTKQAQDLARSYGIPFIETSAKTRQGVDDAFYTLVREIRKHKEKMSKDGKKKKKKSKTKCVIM

`CO[C@@H](C)COc1nc(N2C[C@H]3C[C@@H]2CN3)c2cc(C3CC3)c(-c3c(C)c(F)cc4[nH]ncc34)c(OCc3ccc(-c4cn([C@H](C(=O)N5C[C@H](O)C[C@H]5C(=O)N[C@@H](CO)c5ccc(-c6scnc6C)cc5)C(C)C)nn4)cc3)c2n1` (single isomer, unassigned) [Example 2A] showed a DC50 on KRAS (G12D) below 10 nM. Also, the IC50 with AsPC-1 cells was below 10 nM.
In turn, `CCn1nccc1-c1ccc([C@H](CO)NC(=O)[C@@H]2C[C@@H](O)CN2C(=O)[C@H](C(C)C)n2cc(-c3ccc(COc4c(-c5c(C)c(F)cc6[nH]ncc56)c(C5CCC5)cc5c(N6C[C@@H]7C[C@H]6CN7)nc(OC[C@H](C)OC)nc45)cc3)nn2)cc1` [Example 68, (2S,4R)-1-((2S)-2-(4-(4-(((4-((1S,4S)-2,5-diazabicyclo[2.2.1]heptan-2-yl)-6-cyclobutyl-7-(6-fluoro-5-methyl-1H-indazol-4-yl)-2-((S)-2-methoxypropoxy)quinazolin-8-yl)oxy)methyl)phenyl)-1H-1,2,3-triazol-1-yl)-3-methylbutanoyl)-N—((R)-1-(4-(1-ethyl-1H-pyrazol-5-yl)phenyl)-2-hydroxyethyl)-4-hydroxypyrrolidine-2-carboxamide] displayed a DC50 on KRAS (G12D) below 10 nM. Moreover, in the experiment on AsPC-1 cells (Homo sapiens, ASPC1, 144 h), the IC50 was below 10 nM.
For the molecule `CNc1nc2ccc(C#C[C@H](CO)NC(=O)[C@@H]3C[C@@H](O)CN3C(=O)[C@H](C(C)C)n3cc(-c4ccc(COc5c(-c6c(C)c(F)cc7[nH]ncc67)c(C6CC6)cc6c(N7C[C@@H]8C[C@H]7CN8)nc(OC[C@H](C)OC)nc56)cc4)nn3)cc2s1` [Example 176, (2S,4R)-1-((2S)-2-(4-(4-(((4-((1S,4S)-2,5-diazabicyclo[2.2.1]heptan-2-yl)-6-cyclopropyl-7-(6-fluoro-5-methyl-1H-indazol-4-yl)-2-((S)-2-methoxypropoxy)quinazolin-8-yl)oxy)methyl)phenyl)-1H-1,2,3-triazol-1-yl)-3-methylbutanoyl)-4-hydroxy-N—((R)-1-hydroxy-4-(2-(methylamino)benzo[d]thiazol-6-yl)but-3-yn-2-yl)pyrrolidine-2-carboxamide], on KRAS (G12D), the DC50 was below 10 nM. The molecule further registered an IC50 with AsPC-1 cells (Homo sapiens, ASPC1, 144 h) below 10 nM.
In turn, `CCn1nccc1-c1ccc([C@H](CC(=O)NC)NC(=O)[C@@H]2C[C@@H](O)CN2C(=O)[C@H](C(C)C)n2cc(-c3ccc(COc4c(-c5c(C)c(F)cc6[nH]ncc56)c(C5CC5)cc5c(N6C[C@@H]7C[C@H]6CN7)nc(OC[C@H](C)OC)nc45)cc3)nn2)cc1` [Example 55, (2S,4R)-1-((2S)-2-(4-(4-(((4-((1S,4S)-2,5-diazabicyclo[2.2.1]heptan-2-yl)-6-cyclopropyl-7-(6-fluoro-5-methyl-1H-indazol-4-yl)-2-((S)-2-methoxypropoxy)quinazolin-8-yl)oxy)methyl)phenyl)-1H-1,2,3-triazol-1-yl)-3-methylbutanoyl)-N—((S)-1-(4-(1-ethyl-1H-pyrazol-5-yl)phenyl)-3-(methylamino)-3-oxopropyl)-4-hydroxypyrrolidine-2-carboxamide] came in with a DC50 on KRAS (G12D) below 10 nM. The IC50 in the experiment on AsPC-1 cells (Homo sapiens, ASPC1, 144 h) was below 10 nM.
At KRAS (G12D), `CO[C@@H](C)COc1nc(N2C[C@@H]3C[C@H]2CN3)c2cc(C3CC3)c(-c3c(C)c(F)cc4[nH]ncc34)c(OCc3ccc(-c4cn([C@H](C(=O)N5C[C@H](O)C[C@H]5C(=O)N[C@H](C#Cc5cccc(F)c5F)CO)C(C)C)nn4)cc3)c2n1` [Example 60, (2S,4R)-1-((2S)-2-(4-(4-(((4-((1S,4S)-2,5-diazabicyclo[2.2.1]heptan-2-yl)-6-cyclopropyl-7-(6-fluoro-5-methyl-1H-indazol-4-yl)-2-((S)-2-methoxypropoxy)quinazolin-8-yl)oxy)methyl)phenyl)-1H-1,2,3-triazol-1-yl)-3-methylbutanoyl)-N—((R)-4-(2,3-difluorophenyl)-1-hydroxybut-3-yn-2-yl)-4-hydroxypyrrolidine-2-carboxamide] registered a DC50 below 10 nM. In the experiment on AsPC-1 cells (Homo sapiens, ASPC1, 144 h), this molecule yielded an IC50 below 10 nM.
On to `CCn1nccc1-c1ccc([C@H](CO)NC(=O)[C@@H]2C[C@@H](O)CN2C(=O)[C@H](C(C)C)n2cc(-c3ccc(COc4c(-c5c(C)c(F)cc6[nH]ncc56)c(C5CC5)cc5c(N(C)[C@@H]6CCNC6)nc(OC[C@H](C)OC)nc45)cc3)nn2)c2c1CC2` [Example 192, (2S,4R)-1-((2S)-2-(4-(4-(((6-cyclopropyl-7-(6-fluoro-5-methyl-1H-indazol-4-yl)-2-((S)-2-methoxypropoxy)-4-(methyl((R)-pyrrolidin-3-yl)amino)quinazolin-8-yl)oxy)methyl)phenyl)-1H-1,2,3-triazol-1-yl)-3-methylbutanoyl)-N—((R)-1-(5-(1-ethyl-1H-pyrazol-5-yl)bicyclo[4.2.0]octa-1(6),2,4-trien-2-yl)-2-hydroxyethyl)-4-hydroxypyrrolidine-2-carboxamide], for which, at KRAS (G12D), the DC50 is below 10 nM. Further, the IC50 in the experiment on AsPC-1 cells (Homo sapiens, ASPC1, 144 h) was below 10 nM.
For the molecule `Cc1ncsc1-c1ccc([C@@H](NC(=O)[C@@H]2C[C@@H](O)CN2C(=O)[C@H](C(C)C)n2cc(-c3ccc(COc4c(-c5c(C)c(F)cc6[nH]ncc56)c(C5CC5)cc5c(N6C[C@@H]7C[C@H]6CN7)nc(OC6CC7COCC7C6)nc45)cc3)nn2)[C@H](C)O)cc1` (stereo partly drawn) [Example 132, (2S,4R)-1-((2S)-2-(4-(4-(((4-((1S,4S)-2,5-diazabicyclo[2.2.1]heptan-2-yl)-6-cyclopropyl-7-(6-fluoro-5-methyl-1H-indazol-4-yl)-2-((hexahydro-1H-cyclopenta[c]furan-5-yl)oxy)quinazolin-8-yl)oxy)methyl)phenyl)-1H-1,2,3-triazol-1-yl)-3-methylbutanoyl)-4-hydroxy-N-((1R,2S)-2-hydroxy-1-(4-(4-methylthiazol-5-yl)phenyl)propyl)pyrrolidine-2-carboxamide], the DC50 at KRAS (G12D) is below 10 nM. The molecule also showed an IC50 in the experiment with AsPC-1 cells (Homo sapiens, ASPC1, 144 h) below 10 nM.
Consider `CO[C@H]1C[C@H](Oc2nc(N(C)[C@H]3CCNC3)c3cc(C4CC4)c(-c4c(C)c(F)cc5[nH]ncc45)c(OCc4ccc(-c5cn([C@H](C(=O)N6C[C@H](O)C[C@H]6C(=O)N[C@H](c6ccc(-c7scnc7C)cc6)[C@H](C)O)C(C)C)nn5)cc4)c3n2)C1` [Example 171, (2S,4R)-1-((2S)-2-(4-(4-(((6-cyclopropyl-7-(6-fluoro-5-methyl-1H-indazol-4-yl)-2-((1r,3S)-3-methoxycyclobutoxy)-4-(methyl((S)-pyrrolidin-3-yl)amino)quinazolin-8-yl)oxy)methyl)phenyl)-1H-1,2,3-triazol-1-yl)-3-methylbutanoyl)-4-hydroxy-N-((1R,2S)-2-hydroxy-1-(4-(4-methylthiazol-5-yl)phenyl)propyl)pyrrolidine-2-carboxamide], for which the DC50 on KRAS (G12D) is below 10 nM. In addition, the IC50 in the experiment on AsPC-1 cells (Homo sapiens, ASPC1, 144 h) was below 10 nM.
Regarding `CCn1nccc1-c1ccc([C@@H](NC(=O)[C@@H]2C[C@@H](O)CN2C(=O)[C@H](C(C)C)n2cc(-c3ccc(COc4c(-c5c(C)c(F)cc6[nH]ncc56)c(C5CC5)cc5c(N6C[C@@H]7C[C@H]6CN7)nc(O[C@H]6C[C@H](OC)C6)nc45)cc3)nn2)[C@@H](C)O)cc1` [Example 131, (2S,4R)-1-((2S)-2-(4-(4-(((4-((1S,4S)-2,5-diazabicyclo[2.2.1]heptan-2-yl)-6-cyclopropyl-7-(6-fluoro-5-methyl-1H-indazol-4-yl)-2-((1r,3S)-3-methoxycyclobutoxy)quinazolin-8-yl)oxy)methyl)phenyl)-1H-1,2,3-triazol-1-yl)-3-methylbutanoyl)-N-((1R,2R)-1-(4-(1-ethyl-1H-pyrazol-5-yl)phenyl)-2-hydroxypropyl)-4-hydroxypyrrolidine-2-carboxamide], the DC50 at KRAS (G12D) is below 10 nM. The molecule also registered an IC50 with AsPC-1 cells (Homo sapiens, ASPC1, 144 h) below 10 nM.

A word on the DC50: it is the concentration giving 50% degradation. Low readings indicate a more potent degrader, high ones a less potent degrader. A word on the IC50: it is the concentration at which inhibition is half-maximal.
